Assay results reported in patent publication US20250163032A1, “NOVEL MOLECULES AS INHIBITORS OF DNA DAMAGE REPAIR PATHWAY” (VRise Therapeutics, Inc., priority 2023, published 2025).

The molecules below were run against USP1/UAF1 (Homo sapiens, UniProt O94782) (assay: USP1/UAF 1 assay (ubiquitin-rhodamine110 fluorometric deubiquitinase assay)). Conditions: read-out: Biochemical assay % inhibition @1 μM.
Format: biochemical
Method: Test-1: USP1/UAF 1 Assay:
Deubiquitinase activity of USP1/UAF1 was monitored in a fluorometric assay using ubiquitin-rhodamine110 as substrate. Briefly, enzymatic reactions were conducted in an assay buffer composed of 50 mM HEPES, pH 7.8, 0.5 mM EDTA, 100 mM NaCl, 1 mM TCEP, 0.1 mg/mL BSA, and 0.01% Tween-20 that contained 1 nM USP1/UAF1. Compounds were tested at desired concentrations. The plates were incubated for 15 min to attain equilibrium, and then the enzymatic reaction was initiated by dispensing 150 nM Ub-Rho solution. Fluorescence measurement was performed in a high throughput CCD imager, where kinetic measurements of rhodamine fluorescence were acquired using a 480 nm excitation/540 nm emission filter set. The change in fluorescence intensity over a 5-minute reaction period (typically associated with less than 10% substrate conversion) was normalized against no-inhibitor and no-enzyme controls and the resulting percent inhibition data were fitted to a sigmoidal dose response using a four-parameter Hill equation. Data was be analysed and percent inhibition and/or IC50 for each test compound is calculated accordingly.

Sequence of USP1/UAF1 (O94782 whole entry): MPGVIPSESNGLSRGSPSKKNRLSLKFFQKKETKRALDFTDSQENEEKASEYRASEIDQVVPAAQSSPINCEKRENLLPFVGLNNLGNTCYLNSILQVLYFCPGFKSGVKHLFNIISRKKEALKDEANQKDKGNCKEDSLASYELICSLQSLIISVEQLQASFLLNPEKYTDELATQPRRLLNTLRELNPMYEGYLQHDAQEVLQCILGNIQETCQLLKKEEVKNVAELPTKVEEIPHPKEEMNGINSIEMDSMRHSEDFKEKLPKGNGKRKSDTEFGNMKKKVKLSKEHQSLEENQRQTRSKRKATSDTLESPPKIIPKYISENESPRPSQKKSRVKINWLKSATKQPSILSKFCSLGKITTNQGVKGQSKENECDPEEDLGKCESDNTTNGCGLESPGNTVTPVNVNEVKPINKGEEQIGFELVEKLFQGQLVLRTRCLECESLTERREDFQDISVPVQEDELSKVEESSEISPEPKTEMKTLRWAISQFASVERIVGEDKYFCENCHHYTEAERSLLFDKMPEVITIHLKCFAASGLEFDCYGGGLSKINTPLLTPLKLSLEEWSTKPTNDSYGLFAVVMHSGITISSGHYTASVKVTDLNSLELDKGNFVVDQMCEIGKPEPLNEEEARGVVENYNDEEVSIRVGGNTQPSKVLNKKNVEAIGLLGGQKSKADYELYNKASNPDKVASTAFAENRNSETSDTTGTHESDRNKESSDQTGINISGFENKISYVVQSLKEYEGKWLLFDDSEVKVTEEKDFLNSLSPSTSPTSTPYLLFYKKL
Sequence of USP1/UAF1 (Q8TAF3 whole entry partner): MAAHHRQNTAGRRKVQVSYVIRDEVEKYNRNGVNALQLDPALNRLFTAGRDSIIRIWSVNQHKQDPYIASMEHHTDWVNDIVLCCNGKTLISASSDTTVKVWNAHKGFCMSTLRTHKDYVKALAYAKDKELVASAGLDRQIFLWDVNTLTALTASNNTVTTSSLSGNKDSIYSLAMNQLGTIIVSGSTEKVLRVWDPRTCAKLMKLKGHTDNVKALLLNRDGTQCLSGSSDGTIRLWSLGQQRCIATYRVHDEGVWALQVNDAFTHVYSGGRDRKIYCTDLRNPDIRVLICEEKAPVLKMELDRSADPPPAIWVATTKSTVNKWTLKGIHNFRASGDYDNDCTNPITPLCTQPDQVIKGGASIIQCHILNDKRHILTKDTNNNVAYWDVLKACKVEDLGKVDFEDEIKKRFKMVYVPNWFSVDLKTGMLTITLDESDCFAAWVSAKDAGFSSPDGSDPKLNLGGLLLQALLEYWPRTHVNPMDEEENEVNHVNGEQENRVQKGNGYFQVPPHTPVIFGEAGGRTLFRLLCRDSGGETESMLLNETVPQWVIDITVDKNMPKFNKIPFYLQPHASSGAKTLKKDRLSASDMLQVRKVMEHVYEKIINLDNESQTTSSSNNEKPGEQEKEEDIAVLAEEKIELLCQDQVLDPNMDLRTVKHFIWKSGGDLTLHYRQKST

Q: For COc1ccc(-c2nc(NCc3ccc(-c4nc(C(F)(F)F)cn4C)cc3)c3[nH]cnc3n2)c(OC)n1 [Example 43, 2-(2,6-dimethoxypyridin-3-yl)-N-(4-(1-methyl-4-(trifluoromethyl)-1H-imidazol-2-yl)benzyl)-7H-purin-6-amine], which inhibition at 1 µM is on record?
A: The inhibition at 1 µM was 50 to 75%.

Q: With Cc1cc(C)cc(-c2nc(NCc3ccc(-c4nc(C(F)(F)F)cn4C)cc3)c3[nH]cnc3n2)c1 [Example 50, 2-(3,5-dimethylphenyl)-N-(4-(1-methyl-4-(trifluoromethyl)-1H-imidazol-2-yl)benzyl)-7H-purin-6-amine] as the molecule, how does the inhibition at 1 µM read?
A: The inhibition at 1 µM was 50 to 75%.

Q: Which inhibition at 1 µM does the source give for COc1ccc(OC)c(-c2nc3c(c(NCc4ccc(-c5nc(C(F)(F)F)cn5C)cc4)n2)CCC3)c1 [Example 66, 2-(2,5-dimethoxyphenyl)-N-(4-(1-methyl-4-(trifluoromethyl)-1H-imidazol-2-yl)benzyl)-6,7-dihydro-5H-cyclopenta[d]pyrimidin-4-amine] here?
A: The inhibition at 1 µM was 50 to 75%.

Q: Which inhibition at 1 µM does the source give for Cn1cc(C(F)(F)F)nc1-c1ccc(CNc2nc(-c3ccc(C(F)(F)F)cc3)nc3c2CCC3)cc1 [Example 71, N-(4-(1-methyl-4-(trifluoromethyl)-1H-imidazol-2-yl)benzyl)-2-(4-(trifluoromethyl)phenyl)-6,7-dihydro-5H-cyclopenta[d]pyrimidin-4-amine] here?
A: Its inhibition at 1 µM is 50 to 75%.

Q: How did the inhibition at 1 µM turn out when Cn1cc(C(F)(F)F)nc1-c1ccc(CNc2nc(-c3cccc(F)c3C(F)(F)F)nc3nc[nH]c23)cc1 [Example 54, 2-(3-fluoro-2-(trifluoromethyl)phenyl)-N-(4-(1-methyl-4-(trifluoromethyl)-1H-imidazol-2-yl)benzyl)-7H-purin-6-amine] was run?
A: Its inhibition at 1 µM is 50 to 75%.

Q: Cn1cc(C(F)(F)F)nc1-c1ccc(CNc2nc(-c3cc(F)cc(F)c3F)nc3c2CCC3)cc1 [Example 74, N-(4-(1-methyl-4-(trifluoromethyl)-1H-imidazol-2-yl)benzyl)-2-(2,3,5-trifluorophenyl)-6,7-dihydro-5H-cyclopenta[d]pyrimidin-4-amine] was tested. Which inhibition at 1 µM did it give?
A: The inhibition at 1 µM was 50 to 75%.

Q: Cn1cc(C(F)(F)F)nc1-c1ccc(CNc2nc(-c3cc(Cl)cc(Cl)c3)nc3nc[nH]c23)cc1 [Example 39, 2-(3,5-dichlorophenyl)-N-(4-(1-methyl-4-(trifluoromethyl)-1H-imidazol-2-yl)benzyl)-7H-purin-6-amine] was tested. Which inhibition at 1 µM did it give?
A: Its inhibition at 1 µM is 50 to 75%.

Q: For Cn1cc(C(F)(F)F)nc1-c1ccc(CNc2nc(-c3cccc(C(N)=O)c3)nc3nc[nH]c23)cc1 [Example 55, 3-(6-((4-(1-methyl-4-(trifluoromethyl)-1H-imidazol-2-yl)benzyl)amino)-7H-purin-2-yl)benzamide], which inhibition at 1 µM is on record?
A: Its inhibition at 1 µM is 50 to 75%.

Q: How did the inhibition at 1 µM turn out when Cn1cc(C(F)(F)F)nc1-c1ccc(CNc2nc(-c3cccc(Cl)c3F)nc3c2CCC3)cc1 [Example 67, 2-(3-chloro-2-fluorophenyl)-N-(4-(1-methyl-4-(trifluoromethyl)-1H-imidazol-2-yl)benzyl)-6,7-dihydro-5H-cyclopenta[d]pyrimidin-4-amine] was run?
A: The inhibition at 1 µM was 50 to 75%.

Q: Which inhibition at 1 µM does the source give for Cn1cc(C(F)(F)F)nc1-c1ccc(CNc2nc(Cl)nc3c2ncn3C2CCCCO2)cc1 (centres unmarked) [Example 17, 2-chloro-N-(4-(1-methyl-4-(trifluoromethyl)-1H-imidazol-2-yl)benzyl)-9-(tetrahydro-2H-pyran-2-yl)-9H-purin-6-amine] here?
A: Its inhibition at 1 µM is over 75%.

Q: With COc1ccc(-c2nc3c(c(NCc4ccc(-c5nc(C(F)(F)F)cn5C)cc4)n2)CCC3)c(OC)n1 [Example 65, 2-(2,6-dimethoxypyridin-3-yl)-N-(4-(1-methyl-4-(trifluoromethyl)-1H-imidazol-2-yl)benzyl)-6,7-dihydro-5H-cyclopenta[d]pyrimidin-4-amine] as the molecule, how does the inhibition at 1 µM read?
A: Its inhibition at 1 µM is 50 to 75%.

Q: For Cn1cc(C(F)(F)F)nc1-c1ccc(CNc2nc(-c3ccc(OC(F)(F)F)cc3)nc3nc[nH]c23)cc1 [Example 47, N-(4-(1-methyl-4-(trifluoromethyl)-1H-imidazol-2-yl)benzyl)-2-(4-(trifluoromethoxy)phenyl)-7H-purin-6-amine], which inhibition at 1 µM is on record?
A: Its inhibition at 1 µM is 50 to 75%.

Q: How did the inhibition at 1 µM turn out when Cn1cc(C(F)(F)F)nc1-c1ccc(CNc2nc(-c3cccc(C(F)(F)F)c3)nc3nc[nH]c23)cc1 [Example 58, N-(4-(1-methyl-4-(trifluoromethyl)-1H-imidazol-2-yl)benzyl)-2-(3-(trifluoromethyl)phenyl)-7H-purin-6-amine] was run?
A: The inhibition at 1 µM was 50 to 75%.

Q: Which inhibition at 1 µM does the source give for CC(=O)Nc1cccc(-c2nc3c(c(NCc4ccc(-c5nc(C(F)(F)F)cn5C)cc4)n2)CCC3)c1 [Example 59, N-(3-(4-((4-(1-methyl-4-(trifluoromethyl)-1H-imidazol-2-yl)benzyl)amino)-6,7-dihydro-5H-cyclopenta[d]pyrimidin-2-yl)phenyl)acetamide] here?
A: The inhibition at 1 µM was 50 to 75%.

Q: How did the inhibition at 1 µM turn out when Cn1cc(C(F)(F)F)nc1-c1ccc(CNc2nc(-c3cccc(OC(F)(F)F)c3)nc3nc[nH]c23)cc1 [Example 46, N-(4-(1-methyl-4-(trifluoromethyl)-1H-imidazol-2-yl)benzyl)-2-(3-(trifluoromethoxy)phenyl)-7H-purin-6-amine] was run?
A: Its inhibition at 1 µM is 50 to 75%.

Q: Which inhibition at 1 µM does the source give for Cn1cc(C(F)(F)F)nc1-c1ccc(CNc2nc(-c3ccccc3C(F)(F)F)nc3c2CCC3)cc1 [Example 70, N-(4-(1-methyl-4-(trifluoromethyl)-1H-imidazol-2-yl)benzyl)-2-(2-(trifluoromethyl)phenyl)-6,7-dihydro-5H-cyclopenta[d]pyrimidin-4-amine] here?
A: Its inhibition at 1 µM is over 75%.

Q: How did the inhibition at 1 µM turn out when Cn1cc(C(F)(F)F)nc1-c1ccc(CNc2nc(-c3cc(Cl)ccc3F)nc3c2CCC3)cc1 [Example 61, 2-(5-chloro-2-fluorophenyl)-N-(4-(1-methyl-4-(trifluoromethyl)-1H-imidazol-2-yl)benzyl)-6,7-dihydro-5H-cyclopenta[d]pyrimidin-4-amine] was run?
A: The inhibition at 1 µM was 50 to 75%.

Q: Which inhibition at 1 µM does the source give for Cn1cc(C(F)(F)F)nc1-c1ccc(CNc2nc(-c3cc(Cl)cc(Cl)c3)nc3c2CCC3)cc1 [Example 73, 2-(3,5-dichlorophenyl)-N-(4-(1-methyl-4-(trifluoromethyl)-1H-imidazol-2-yl)benzyl)-6,7-dihydro-5H-cyclopenta[d]pyrimidin-4-amine] here?
A: The inhibition at 1 µM was 50 to 75%.

Q: Which inhibition at 1 µM does the source give for Cn1cc(C(F)(F)F)nc1-c1ccc(CNc2nc(-c3ccc(C(F)(F)F)cc3)nc3nc[nH]c23)cc1 [Example 57, N-(4-(1-methyl-4-(trifluoromethyl)-1H-imidazol-2-yl)benzyl)-2-(4-(trifluoromethyl)phenyl)-7H-purin-6-amine] here?
A: Its inhibition at 1 µM is 50 to 75%.

Q: Which inhibition at 1 µM does the source give for Cn1cc(C(F)(F)F)nc1-c1ccc(CNc2nc(-c3ccc(-c4ccccc4)cc3)nc3c2CCC3)cc1 [Example 64, 2-([1,1′-biphenyl]-4-yl)-N-(4-(1-methyl-4-(trifluoromethyl)-1H-imidazol-2-yl)benzyl)-6,7-dihydro-5H-cyclopenta[d]pyrimidin-4-amine] here?
A: Its inhibition at 1 µM is 25 to 50%.

Q: For Cn1cc(C(F)(F)F)nc1-c1ccc(CNc2nc(-c3ccccc3C(F)(F)F)nc3nc[nH]c23)cc1 [Example 45, N-(4-(1-methyl-4-(trifluoromethyl)-1H-imidazol-2-yl)benzyl)-2-(2-(trifluoromethyl)phenyl)-7H-purin-6-amine], which inhibition at 1 µM is on record?
A: The inhibition at 1 µM was 50 to 75%.

Q: Which inhibition at 1 µM does the source give for Cc1cccc(-c2nc(NCc3ccc(-c4nc(C(F)(F)F)cn4C)cc3)c3[nH]cnc3n2)c1Cl [Example 38, 2-(2-chloro-3-methylphenyl)-N-(4-(1-methyl-4-(trifluoromethyl)-1H-imidazol-2-yl)benzyl)-7H-purin-6-amine] here?
A: Its inhibition at 1 µM is 50 to 75%.

Q: How did the inhibition at 1 µM turn out when Cn1cc(C(F)(F)F)nc1-c1ccc(CNc2nc(-c3ccc(F)c(C#N)c3)nc3nc[nH]c23)cc1 [Example 49, 2-fluoro-5-(6-((4-(1-methyl-4-(trifluoromethyl)-1H-imidazol-2-yl)benzyl)amino)-7H-purin-2-yl)benzonitrile] was run?
A: The inhibition at 1 µM was 50 to 75%.

Q: Which inhibition at 1 µM does the source give for COc1cc(-c2nc(NCc3ccc(-c4nc(C(F)(F)F)cn4C)cc3)c3[nH]cnc3n2)ccc1F [Example 52, 2-(4-fluoro-3-methoxyphenyl)-N-(4-(1-methyl-4-(trifluoromethyl)-1H-imidazol-2-yl)benzyl)-7H-purin-6-amine] here?
A: Its inhibition at 1 µM is 50 to 75%.

Q: For Cn1cc(C(F)(F)F)nc1-c1ccc(CNc2nc(-c3ccc(Cl)cc3Cl)nc3nc[nH]c23)cc1 [Example 42, 2-(2,4-dichlorophenyl)-N-(4-(1-methyl-4-(trifluoromethyl)-1H-imidazol-2-yl)benzyl)-7H-purin-6-amine], which inhibition at 1 µM is on record?
A: The inhibition at 1 µM was 50 to 75%.

Q: Cn1cc(C(F)(F)F)nc1-c1ccc(CNc2nc(-c3cc(F)cc(F)c3)nc3nc[nH]c23)cc1 [Example 41, 2-(3,5-difluorophenyl)-N-(4-(1-methyl-4-(trifluoromethyl)-1H-imidazol-2-yl)benzyl)-7H-purin-6-amine] was tested. Which inhibition at 1 µM did it give?
A: The inhibition at 1 µM was 50 to 75%.

Same assay, conditions: read-out: Biochemical assay % inhibition @10 μM

Q: COc1cccc(F)c1-c1nc(NCc2ccc(-c3nc(C(F)(F)F)cn3C)cc2)c2[nH]cnc2n1 [Example 30, 2-(2-fluoro-6-methoxyphenyl)-N-(4-(1-methyl-4-(trifluoromethyl)-1H-imidazol-2-yl)benzyl)-7H-purin-6-amine] was tested. Which inhibition at 10 µM did it give?
A: Its inhibition at 10 µM is over 75%.

Q: For Cn1cc(C(F)(F)F)nc1-c1ccc(CNc2nc(N3CCOCC3)nc3nc[nH]c23)cc1 [Example 36, N-(4-(1-methyl-4-(trifluoromethyl)-1H-imidazol-2-yl)benzyl)-2-morpholino-7H-purin-6-amine], which inhibition at 10 µM is on record?
A: Its inhibition at 10 µM is 50 to 75%.

Q: COc1ccncc1-c1nc(NCc2ccc(-c3nc(C(F)(F)F)cn3C)cc2)c2[nH]cnc2n1 [Example 34, 2-(4-methoxypyridin-3-yl)-N-(4-(1-methyl-4-(trifluoromethyl)-1H-imidazol-2-yl)benzyl)-7H-purin-6-amine] was tested. Which inhibition at 10 µM did it give?
A: The inhibition at 10 µM was over 75%.
